From US10370401B2, “Substituted nucleosides, nucleotides and analogs thereof” (Alios BioPharma, Inc., priority 2013, dated 2019)

Test system: Human rhinovirus 1B
Test: Picornavirus assay (CPE, CellTiter-Glo, HeLa-OHIO cells)
Type: cell-based
Details: Rhinovirus A, 96 h

Row | Structure (SMILES) | EC50
1 | CC(C)OC(=O)[C@H](C)NP(=O)(OC[C@@]1(F)O[C@@H](n2ccc(=O)[nH]c2=O)[C@](C)(O)[C@@H]1O)Oc1cccc2ccccc12 (stereo partly shown) [Compound 150] | 1 to 10 µM
2 | C[C@H](NP(=O)(OC[C@@]1(F)O[C@@H](n2cnc3c(=O)[nH]c(N)nc32)[C@](C)(O)[C@@H]1O)Oc1ccccc1)C(=O)OC1CCCCC1 (stereo partly shown) [Compound 7] | 1 to 10 µM
3 | CC(=O)O[C@H]1[C@@](C)(O)[C@H](n2ccc(=O)[nH]c2=O)O[C@]1(F)COP(=O)(N[C@@H](C)C(=O)OC(C)C)Oc1ccc(Cl)cc1 (stereo partly shown) [Compound 153] | 1 to 10 µM
4 | C[C@H](NP(=O)(OC[C@@]1(F)O[C@@H](n2ccc(=O)[nH]c2=O)[C@](C)(O)[C@@H]1O)Oc1ccccc1)C(=O)OC1CCCCC1 (stereo partly shown) [Compound 8] | 1 to 10 µM
5 | CCOc1nc(N)nc2c1ncn2[C@@H]1O[C@](F)(COP(=O)(N[C@@H](C)C(=O)OCC(C)(C)C)Oc2ccccc2)[C@@H](O)[C@@]1(C)O (stereo partly shown) [Compound 33] | < 1 µM
6 | CC(C)OC(=O)[C@H](C)NP(=O)(OC[C@@]1(F)O[C@@H](n2ccc(=O)[nH]c2=O)[C@](C)(O)[C@@H]1O)Oc1ccccc1 (stereo partly shown) [Compound 5] | 10 to 100 µM
7 | CCOc1nc(NC=O)nc2c1ncn2[C@@H]1O[C@](F)(COP(=O)(N[C@@H](C)C(=O)OC2CCCCC2)Oc2ccccc2)[C@@H](F)[C@@]1(C)O (stereo partly shown) [Compound 17] | 10 to 100 µM
8 | CC(C)OC(=O)[C@H](C)NP(=O)(OC[C@@]1(F)O[C@@H](n2ccc(=O)[nH]c2=O)[C@](C)(O)[C@@H]1O)Oc1ccc(Cl)cc1 (stereo partly shown) [Compound 152] | 1 to 10 µM

Same assay, conditions: Rhinovirus A, 96 h; Human rhinovirus 1B, HeLa-OHIO cells, 4 d at 33° C.; read-out: EC50

Row | Structure (SMILES) | EC50
9 | CC(C)(C)C(=O)OCOP(=O)(OCOC(=O)C(C)(C)C)OC[C@@]1(F)O[C@@H](n2ccc(=O)[nH]c2=O)[C@](C)(O)[C@@H]1O [Compound 151] | < 1 µM
10 | CC(C)OC(=O)OCOP1(=O)OC[C@@]2(CF)O[C@@H](n3ccc(=O)[nH]c3=O)[C@](C)(O)[C@@H]2O1 (stereo partly shown) [Compound 158] | 10 to 100 µM
11 | Nc1ccn([C@@H]2O[C@@](CO)(CCl)[C@@H](O)C2(F)F)c(=O)n1 [Compound 69] | 1 to 10 µM
12 | CC[C@]1(CO)O[C@@H](n2ccc(N)nc2=O)C(F)(F)[C@@H]1O [Compound 1] | 1 to 10 µM
13 | CCOc1nc(N)nc2c1ncn2[C@@H]1O[C@]2(F)CO[P@@](=O)(OC(C)C)O[C@H]2[C@@]1(C)F [Compound 87] | 1 to 10 µM
14 | [N-]=[N+]=NC[C@]1(CO)O[C@@H](n2ccc(N)nc2=O)C(F)(F)[C@@H]1O [Compound 296] | 1 to 10 µM
15 | CC(C)OC(=O)OC(C)OP(=O)(OC[C@@]1(CF)O[C@@H](n2ccc(=O)[nH]c2=O)[C@](C)(O)[C@@H]1O)OC(C)OC(=O)OC(C)C (stereo partly shown) [Compound 159] | 10 to 100 µM
16 | C[C@@]1(O)[C@H](O)[C@](CO)(CF)O[C@H]1n1ccc(N)nc1=O [Compound 40] | 10 to 100 µM
17 | COCC(COC)OC(=O)OCOP(=O)(OCOC(=O)OC(COC)COC)OC[C@@]1(CF)O[C@@H](n2ccc(=O)[nH]c2=O)[C@](C)(O)[C@@H]1O [Compound 66] | 10 to 100 µM
18 | C[C@]1(F)[C@H](n2ccc(N)nc2=O)O[C@](F)(CO)[C@H]1O [Compound 18] | 10 to 100 µM
19 | [N-]=[N+]=NC[C@]1(CO)O[C@@H](n2ccc(N)nc2=O)[C@@H](O)[C@@H]1O [Compound 297] | 10 to 100 µM

Target: human rhinovirus 16 polymerase (HRV16pol) (Human rhinovirus 16, UniProt Q82122)
Sequence (Q82122 1694-2153 limits assumed): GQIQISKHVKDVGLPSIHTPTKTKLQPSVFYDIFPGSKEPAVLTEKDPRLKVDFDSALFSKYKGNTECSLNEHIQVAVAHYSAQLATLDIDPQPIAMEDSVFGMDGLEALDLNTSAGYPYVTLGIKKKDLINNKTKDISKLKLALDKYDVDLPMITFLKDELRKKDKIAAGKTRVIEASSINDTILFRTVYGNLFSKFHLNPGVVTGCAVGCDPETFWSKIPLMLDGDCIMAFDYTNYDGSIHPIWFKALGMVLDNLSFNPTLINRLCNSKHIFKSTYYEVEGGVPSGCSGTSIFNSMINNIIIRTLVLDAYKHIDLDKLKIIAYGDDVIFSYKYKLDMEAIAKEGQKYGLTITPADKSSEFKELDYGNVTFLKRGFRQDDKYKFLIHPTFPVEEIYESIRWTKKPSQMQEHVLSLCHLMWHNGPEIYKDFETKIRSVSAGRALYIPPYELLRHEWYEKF
Test: biochemical
Details: not given

Row | Structure (SMILES) | IC50
20 | C[C@@]1(O)[C@H](O)[C@@](CF)(CO[P@](O)(=S)OP(=O)(O)OP(=O)(O)O)O[C@H]1n1ccc(=O)[nH]c1=O [Compound 97] | < 10 µM

Same assay, conditions: HRV16pol, 2.5 h at 30° C., mean of several independent experiments; read-out: IC50

Row | Structure (SMILES) | IC50
21 | C[C@@]1(O)[C@H](O)[C@@](CF)(COP(=O)(O)OP(=O)(O)OP(=O)(O)O)O[C@H]1n1ccc2c(N)ncnc21 [compound 254] | < 1 µM
22 | Nc1ncnc2c1ncn2[C@@H]1O[C@H](COP(=O)(O)OP(=O)(O)OP(=O)(O)O)[C@@H](O)[C@]1(O)CF [compound 278] | < 100 µM
23 | C#C[C@@]1(O)[C@H](O)[C@@](CF)(COP(=O)(O)OP(=O)(O)OP(=O)(O)O)O[C@H]1n1ccc(=O)[nH]c1=O [compound 61] | < 1 µM
24 | C#C[C@]1(O)[C@H](n2cnc3c(N)ncnc32)O[C@](C)(COP(=O)(O)OP(=O)(O)OP(=O)(O)O)[C@H]1O [compound 59] | < 100 µM
25 | C#C[C@]1(COP(=O)(O)OP(=O)(O)OP(=O)(O)O)O[C@@H](n2ccc(N)nc2=O)C(F)(F)[C@@H]1O [compound 279] | < 10 µM
26 | C[C@]1(COP(=O)(O)OP(=O)(O)OP(=O)(O)O)O[C@@H](n2ccc(N)nc2=O)C(F)(F)[C@@H]1O [compound 277] | < 10 µM
27 | C#C[C@@]1(O)[C@H](O)[C@@H](COP(=O)(O)OP(=O)(O)OP(=O)(O)O)O[C@H]1n1ccc2c(N)ncnc21 [compound 205] | < 1 µM
28 | C[C@]1(O)[C@H](n2ccc(=O)[nH]c2=O)O[C@](C)(COP(=O)(O)OP(=O)(O)OP(=O)(O)O)[C@H]1O [compound 58] | < 10 µM
29 | N#C[C@@]1(n2ccc(N)nc2=O)O[C@](CF)(COP(=O)(O)OP(=O)(O)OP(=O)(O)O)[C@@H](O)[C@H]1O [compound 238] | < 10 µM
30 | Nc1ccn([C@@H]2O[C@@](COP(=O)(O)OP(=O)(O)OP(=O)(O)O)(C(F)F)[C@H](O)[C@@H]2F)c(=O)n1 [compound 168] | < 10 µM
31 | C=C[C@@]1(O)[C@H](O)[C@@](CF)(COP(=O)(O)OP(=O)(O)OP(=O)(O)O)O[C@H]1n1ccc(=O)[nH]c1=O [compound 251] | < 10 µM
32 | N#C[C@@]1(n2ccc(=O)[nH]c2=O)O[C@](CF)(COP(=O)(O)OP(=O)(O)OP(=O)(O)O)[C@@H](O)[C@H]1O [compound 237] | < 1 µM
33 | [N-]=[N+]=NC[C@]1(COP(=O)(O)OP(=O)(O)OP(=O)(O)O)O[C@@H](n2ccc(N)nc2=O)[C@H](F)[C@@H]1O [compound 107] | < 1 µM
34 | [N-]=[N+]=NC[C@]1(COP(=O)(O)OP(=O)(O)OP(=O)(O)O)O[C@@H](n2ccc(N)nc2=O)C(F)(F)[C@@H]1O [compound 274] | < 10 µM
35 | O=c1ccn([C@@H]2O[C@](F)(COP(=O)(O)OP(=O)(O)OP(=O)(O)O)[C@@H](O)[C@]2(O)CF)c(=O)[nH]1 [compound 257] | < 10 µM
36 | [N-]=[N+]=NC[C@]1(COP(=O)(O)OP(=O)(O)OP(=O)(O)O)O[C@@H](n2ccc(N)nc2=O)[C@H](O)[C@@H]1O [compound 275] | < 10 µM
37 | C#C[C@@]1(O)[C@H](O)[C@@H](COP(=O)(O)OP(=O)(O)OP(=O)(O)O)O[C@H]1n1cnc2c(N)ncnc21 [compound 202] | < 1 µM
38 | C#C[C@@]1(n2cnc3c(=O)[nH]c(N)nc32)O[C@H](COP(=O)(O)OP(=O)(O)OP(=O)(O)O)[C@@H](O)[C@H]1F [compound 242] | < 10 µM
39 | C#C[C@]1(F)[C@H](n2ccc(=O)[nH]c2=O)O[C@](F)(COP(=O)(O)OP(=O)(O)OP(=O)(O)O)[C@H]1O [compound 215] | < 10 µM

Target: NS5B570-Con1 (Delta-21) (Hepatitis C virus genotype 1b, UniProt Q9WMX2)
Test: biochemical
Set-up: species or system HCV
Details: not given

Row | Structure (SMILES) | IC50
40 | C[C@@]1(O)[C@H](O)[C@@](CF)(COP(=O)(O)OP(=O)(O)OP(=O)(O)O)O[C@H]1n1ccc2c(N)ncnc21 [compound 254] | < 1 µM
41 | Nc1ncnc2c1ncn2[C@@H]1O[C@H](COP(=O)(O)OP(=O)(O)OP(=O)(O)O)[C@@H](O)[C@]1(O)CF [compound 278] | 1 to 10 µM
42 | C#C[C@@]1(O)[C@H](O)[C@@](CF)(COP(=O)(O)OP(=O)(O)OP(=O)(O)O)O[C@H]1n1ccc(=O)[nH]c1=O [compound 61] | < 1 µM
43 | C#C[C@]1(O)[C@H](n2cnc3c(N)ncnc32)O[C@](C)(COP(=O)(O)OP(=O)(O)OP(=O)(O)O)[C@H]1O [compound 59] | 1 to 10 µM
44 | C#C[C@]1(COP(=O)(O)OP(=O)(O)OP(=O)(O)O)O[C@@H](n2ccc(N)nc2=O)C(F)(F)[C@@H]1O [compound 279] | 10 to 100 µM
45 | C[C@]1(COP(=O)(O)OP(=O)(O)OP(=O)(O)O)O[C@@H](n2ccc(N)nc2=O)C(F)(F)[C@@H]1O [compound 277] | 10 to 100 µM
46 | C#C[C@@]1(O)[C@H](O)[C@@H](COP(=O)(O)OP(=O)(O)OP(=O)(O)O)O[C@H]1n1ccc2c(N)ncnc21 [compound 205] | < 1 µM
47 | C[C@@]1(O)[C@H](O)[C@@](CF)(CO[P@@](O)(=S)OP(=O)(O)OP(=O)(O)O)O[C@H]1n1ccc(=O)[nH]c1=O [Compound 98] | 10 to 100 µM
48 | C[C@@]1(Cl)[C@H](O)[C@@](CF)(COP(=O)(O)OP(=O)(O)OP(=O)(O)O)O[C@H]1n1ccc(=O)[nH]c1=O [compound 210] | 1 to 10 µM
49 | C#C[C@@]1(O)[C@H](O)[C@@H](COP(=O)(O)OP(=O)(O)OP(=O)(O)O)O[C@H]1n1cnc2c(=O)[nH]c(N)nc21 [compound 203] | < 1 µM
